We go through eight compounds from patent US3976672A, “(Hydrocarbylphenylsulfonyl)alkyltrimethylstannanes” (priority 1975, dated 1976).

Data set [1] has as its system adult mites, Tetranychus urticae koch. In words: Mite one-day residual test, comparative (Table VII). The format is in vivo. The settings on record: 3 days after loading mites, 85° F. As for the experimental part: Cotton in the second primary leaf stage, grown in twelve ounce cups under greenhouse conditions at 70°-75° F. was used in this test. One plant (two primary leaves) in one pot was used for each replicate and two replicates were used for each concentration of tin compound tested. Test formulations were prepared by dissolving 50 mg of tin compound in one ml of acetone, adding one drop of Emulfor 719, a commercial surface-activedispersing agent (polyoxyethylated vegetable oil) and suspended in 50 ml of water for concentration of 1000 ppm (parts per million). Aliquots of this solution were further diluted with distilled water to concentrations of 100, 20 and 5 ppm. The plants were sprayed with the formulations using a small spray atomizer to thoroughly drench the foliage. One day following treatment, a circle of tree tanglefoot was placed on the upper surfaces of the treated leaves and adult mites, Tetranychus urticae koch, were transferred into this confinement. Counts of these mites were made immediately following transfer and again six days later.
The mite one-day residual test differed as follows from that set forth in Example 9. The plants were held in a growth chamber maintained at 85° F., and were exposed to high intensity fluorescent lights for 14 hour days. The recorded observations were made 3 days after loading the mites.
(§1) The 3-day tobacco bud worm test on cotton differed as follows from that set forth in Example 10. The plants used were 3 weeks old, and were covered with cheesecloth during the test. Six replicates were used for each test compound, with 1 worm per plant. The plants were infested with larva 3 days after the spray application and the recorded observations were made 6 days after the spray application.

Data set [2] has as its system tobacco bud worm, Heliothis virescens (Fabricius). The data set can be described thus: 3-day tobacco bud worm test on cotton, comparative (Table VII). The settings on record: 6 days after spray. The data set is classed as in vivo. As for the experimental part: Tesst formulations were prepared by dissolving 50 mg of organotin compound of the invention in one ml of acetone, adding one drop of Emulfor 719, a commercial surface-active dispersing agent (polyoxyethylated vegetable oil) and suspending in 50 m1 of water for a concentration of 1000 ppm (parts per million). Aliquots of the solution were further diluted with distilled water to concentrations of 100, 20 and 5 ppm.
Cotton seedlings two weeks old were used. These were grown in 12 ounce cups with two plants in each cup. The diluted formulations were applied to the seedling plants with a spray atomizer and allowed to dry. Three cups were treated with each diluted formulation. A third instar larvae of the tobacco bud worm, Heliothis virescens (Fabricius). was placed in each cup and confined by inverting a perforated 16 oz. styrofoam cup over the top. Percent control of the worms and amount of feeding damage to the plants was determined after two weeks in the greenhouse.
as §1

Data set [3] is described as follows: Hydrolysis in humid air (81% humidity chamber). The format is physicochemical. From the text: A. The compound subjected to humid air was a typical Peterson compound, phenylsulfonylmethyltrimethylstannane, [formula] A 5 gal. jar was set on its side on a wooden support and contained a wire mesh screen to support samples in test over a mixture of 152 g of (NH4)2 SO4 in 168 g of H2 O. An excess of (NH4)2 SO4 in contact with a saturated aqueous solution of (NH4)2 SO4 gives 81% humidity in a closed space.^1 The following samples of this Peterson compound were weighted into 40 mm O.D. petri dishes (minus cover) of 8 mm depth and the dishes placed into the humidity chamber, and the chamber was then closed: No. 15 dish 0.2186 g; No. 34 dish 0.2006 g. Before the samples were removed from the balance, a solid crust began forming on the surface of the liquid and, inside of ten minutes, covered all of the liquid surface. An odor of a volatile trimethyltin compound was noted. When the samples were placed in the humidity chamber, the samples coated almost all of the surface area inside the dishes. The 5 gal. jar was set on the bench under normal laboratory lighting. The initial temperature inside the chamber was 24.5° C. Over 4 days, the temperature ranged from the initial temperature as a high to a low temperature of 18° C. The No. 15 sample was removed after 4 days. Under the surface crust, there was an oily solid. The sample was scraped with a spatula into a 2 dram sample vial. The oily solid remaining was washed into the vial with chloroform (about 0.5 to 1 ml). The chloroform was removed under a stream of nitrogen. The No. 34 sample was removed from the chamber after 7 days. The sample was completely solid and was scraped into a vial.
at 307 Hz and a broadened singlet flanked by satellites at 36.5 Hz for (CH3)3 Sn and a broadened singlet at 191 Hz for the OH.
B. A corresponding compound, closely related to the compounds of this invention, phenylsulfonylethyltrimethylstannane, [formula] was subjected to similar humidity conditions in the same equipment. […]

Data set [4] relates to corn leaf aphids Rhopalosiphum maidis (Fitch). In words: Aphid Contact Test. Particulars: 1000 PPM spray, barley, 5 days. The format is in vivo. As for the experimental part:
Test formulations were prepared for spraying at 1000 ppm (parts per million) concentration by dissolving them in a small amount of acetone and adding a suitable wetting agent. Typically, […] of organotin compound was dissolved (or suspended) in 10 ml of acetone, 2 drops of Triton-X100 wetting agent (octylphenoxy polyethoxy ethanol with 9-10 mole percent of polyethylene oxide) were added and this was suspended in 300 ml of water make a 6000 ppm suspension. An aliquot was then further diluted with distilled water to 1000 ppm concentration of organotin compound.
Eight to ten day old barley seedlings, grown ten plants each in a 12 oz. cup, were infested with corn leaf aphids Rhopalosiphum maidis (Fitch), two days prior to treatment. Two pots were treated with each formulation by spraying with a spray atomizer while the plants were rotating on a turntable. Following treatment, the plants were held for 5 days in the greenhouse. At the end of this period, the percent control of the aphids was estimated based on the reduction of the population density as compared to untreated plants used as controls.

Data set [5] deals with yellow fever mosquito, Aedes aegypti (Linnaeus). The format is in vivo. Particulars: 1 PPM, 72 hours. As for the experimental part:
Formulations were prepared by dissolving 30 mg of organotin compound of the invention in 10 ml of acetone. This solution was then diluted to 1 ppm with water. Two 25-ml aliquots were placed in test tubes to which were added 10 to 25 fourth instar larvae of the yellow fever mosquito, Aedes aegypti (Linnaeus). The tubes were held in darkness for 72 hours. At the end of this period the percent control was determined.

The test system of data set [6] is tobacco bud worm, Heliothis virescens (Fabricius). The data set can be described thus: Tobacco Bud Worm Diet Test. The data set is classed as in vivo. Particulars: 1000 PPM, one week, Abbott-adjusted, 10080 min. As for the experimental part: Test formulations were prepared at 1000 ppm as in B, the Aphid Contact Test, above. Two-tenths ml of the diluted formulations was pipetted onto the surface of 5 grams of a synthetic diet mixture held in partially filled cells of a plastic jelly tray. Five cells were treated with each chemical dilution. The diet mixture was a modified Vanderzant diet consisting of wheat germ, soy flour, agar, sugar, salts, vitamins, preservatives and water. The jelly trays had fifty cavities per sheet, each cavity being approximately 2.5 × 4.0 × 1.5 cm.
Following treatment, a third or early fourth instar larva of the tobacco bud worm, Heliothis virescens (Fabricius), was placed in each cell. The trays were then covered with a plastic film plus a sheet of rigid plastic and were held in an incubator at 80° F.
At the end of one week, the trays were examined and the percent control was determined, adjusted for any natural mortality in the controls by Abbott's formula. The trays were held an additional week and any abnormalities in the development of the survivors was noted.
(§2) F. Abbott's Formula: [formula]

The subject of data set [7] is cotton boll weevils, Anthonomous grandis Boheman. The data set can be described thus: Cotton Boll Weevil Test. The data set is classed as in vivo. Particulars: for % Control Cotton Boll Weevil: 1000 PPM, cotton seedlings, five days, Abbott-corrected, 7200 min; for Boll Weevil % Feeding Reduced on Cotton: 1000 ppm, visual comparison of feeding damage. On the procedure: Formulations were prepared at 1000 ppm as in B, the Aphid Contact Test, above. Cotton seedlings 12 to 14 days old grown in 12 oz cups were used. Two pots were treated with each formulation by spraying with a spray atomizer while rotating the pots on a turntable. Five adult cotton boll weevils, Anthonomous grandis Boheman, were placed in each pot following treatment and were caged by covering the pots with an inverted 16 oz styrofoam cup with small perforations punched in the bottom. The surviving weevils were counted after five days in the greenhouse to determine the percent control, corrected for any natural mortality in the control plants by Abbott's formula. The percent reduction in feeding was estimated by visual comparison of the feeding damage to the treated plants with the control (untreated) plants.
as §2

Data set [8] deals with adult mites, urticae Koch. The data set can be described thus: Mite One-Day Residual Test (Example 8). The format is in vivo. Particulars: 500 PPM, cotton, six days after infestation; 8640 min. On the procedure:
Test compounds were prepared as in B, the Aphid Contact Test, above but were further diluted to 500 ppm with water.
Cotton, in the second primary leaf stage grown in twelve ounce cups under greenhouse conditions at 70°-75° F., was used in the test.
one plant (two primary leaves) in one pot was used for each replicate; two replicates were used for each concentration of organotin compound tested.
The plants were sprayed with the dispersions using a small spray atomizer to throughly drench the foliage.
One day following treatment, a circle of tree tanglefoot was placed on the upper surface of the treated leaves and adult mites, urticae Koch, were transferred into this confinement.
Six days following infestation with mites, the plants were examined for adult live mites remaining on the leaves. On an estimation basis in comparison with the number of living mites on the control plants, the percent control was determined.

For data set [9] the following is noted: cited from earlier work.

For `[CH3][Sn]([CH3])([CH3])[OH]` [trimethyltin hydroxide], the “Mite One-Day Residual % Control” value is recorded as 7% in [1] (0.15 millimoles/liter), 34% in data set [1] (0.3 millimoles/liter) and 9% in data set [1] (0.6 millimoles/liter). Moreover, the “Tobacco Bud Worm % Control” value in data set [2] (0.15 millimoles/liter) is recorded as 16%; in data set [2] (0.3 millimoles/liter), 16%; in data set [2] (0.6 millimoles/liter), 66%. Also, the “Tobacco Bud Worm % Feeding Reduced” value in [2] (0.15 millimoles/liter) was 50%; in data set [2] (0.3 millimoles/liter), 69%; in data set [2] (0.6 millimoles/liter), 81%.

Take `C[CH](S(=O)(=O)c1ccc(C(C)(C)C)cc1)[Sn]([CH3])([CH3])[CH3]` (centres unmarked) [1-[p-t-butylphenylsulfonyl]ethyltrimethylstannane]: the hydrolysis deficiencies result in data set [3] (comparison with the Peterson compound) is given as “suffers from the same hydrolysis deficiencies as does the Peterson compound”.

As to 2-Thioacetoxyethyltri-n-butyltin, the “% Control Aphids” value in data set [4] is recorded as 95%. The “% Control Mosquito Larvae” value in data set [5] is 55%. In data set [6], the “% Control Tobacco Bud Worm” value was 20%. In data set [7], the “% Control Cotton Boll Weevil” value was 40% and the “Boll Weevil % Feeding Reduced on Cotton” value is on record as 90%. Moreover, in data set [8], the “% Control Mite One-Day Residual” value turned out to be 80%.

As for `[CH3][Sn]([CH3])([CH3])[CH2]S(=O)(=O)c1ccccc1` [trimethylphenylsulfonylmethylstannane, phenylsulfonylmethyltrimethylstannane], the “hydrolysis in humid air (NMR)” value in data set [3] (81% humidity, 18-24.5° C., 4 days and 7 days) was “no unreacted starting Peterson compound”.

Take Trimethyltin p-toluenesulfinate: the “% Control Aphids” value in data set [4] is listed as 98%. The “% Control Mosquito Larvae” value in [5] amounted to 0%. The “% Control Tobacco Bud Worm” value in [6] turned out to be 100%. For the same compound, in [7], the “% Control Cotton Boll Weevil” value turned out to be 100% and the “Boll Weevil % Feeding Reduced on Cotton” value worked out at 100%. Further, in [8], the “% Control Mite One-Day Residual” value came to 100%.

Consider `[CH3][Sn]([CH3])([CH3])[CH2]CS(=O)(=O)c1ccccc1` [trimethylphenylsulfonylethylstannane, phenylsulfonylethyltrimethylstannane], for which the “hydrolysis in humid air (infrared, NMR)” value in data set [3] (81% humidity, 27° C./room temperature, 4 days and 2 weeks) is given as “not subject to hydrolysis under the stated conditions”.

“2-(p-dodecylphenylsulfonyl)ethyltrimethylstannane [Compound 11]”: in [4], the “% Control Aphids” value is 90%. The “% Control Mosquito Larvae” value in [5] is recorded as 100%. In data set [6], the “% Control Tobacco Bud Worm” value is 100%. For the same compound, in data set [7], the “% Control Cotton Boll Weevil” value is reported as 100% and the “Boll Weevil % Feeding Reduced on Cotton” value stood at 50%. Moreover, the “% Control Mite One-Day Residual” value in data set [8] amounted to 100%.

For `CCC[CH2][Sn]([CH2]CCC)([CH2]CCC)[CH2]S(=O)(=O)c1ccccc1` [[(Phenylsulfonyl)methyl]tributyltin], the “reactivity toward carbon dioxide and oxygen” value in data set [9] (room temperature) was “unreactive toward carbon dioxide and oxygen at room temperature”. Further, the “decomposition to phenyl methyl sulfone and tributyltin oxide on exposure of a thin layer to air” value in data set [9] (within four days, 5760 min) was “ca. 50%”.
